# Assay results published in patent publication US3988453A, “Novel phenothiazines as neuroleptics” (Roussel-UCLAF, priority 1974, dated 1976).
# Counter-ions that a name gives are not always drawn. Like-named read-outs stand apart in the source and are kept apart here.
# Legend:
# [1] = system: toxicity provoked by amphetamine; assay: antagonism to toxicity provoked by amphetamine; type: in vivo, male mice; conditions: mouse, oral, read-out: ED50 (DE50), amphetaminic toxicity
# Experimental: B. antagonism to toxicity provoked by amphetamine
# This test was effect on groups of 10 male mice grouped in crystallizers with a 20 cm diameter and a 9 cm height closed with a grilled lid. Each mouse orally received a determined dose of the test product and at different times a single intraperitoneal dose of dexamphetamine sulfate. The injection was effected 1 hour, 24 hours or 2,3,4 or 7 days after the administration of the test compound and the mortality for each group was determined 24 hours after the injection. The ED50, the dose at which the toxicity of dexamphetamine sulphate was reduced by 50%, was determined and the results are reported in Table I.
# [2] = system: histamine hydrochloride lethality; assay: antihistaminic activity (protection against lethal histamine dose); type: in vivo, guinea pigs; conditions: guinea pig, oral 10 mg/kg
# Experimental: E. antihistaminic Activity
# This test was effected on guinea pigs which received orally a single dose of 10 mg/kg of the test product and then a intraveinous injection of 0.8 mg/kg of histamine hydrochloride 1 hour or 24 hours thereafter. This histamine dose is the minimum lethal dose for 100% of the animals within about 3 minutes and after 10 minutes, any surviving animals were considered to be protected. Each product was rated to see if 50% of the animals were alive at this dose and the values of Table IV show at least 50% protected by + and less than 50% protected by 0.
# [3] = system: stereotypes provoked by apomorphine; assay: antagonism to stereotypes provoked by apomorphine; type: in vivo, male rats; conditions: rat, oral, read-out: ED50 (DE50), apomorphine sterotypes
# Experimental: A. antagonism to stereotypes provoked by apomorphine
# This test was conducted on groups of 5 male rats in individual cages with the procedure of Janssen et al [Arzn. Forsch., Vol. 15 (1965), p. 104-117 and Vol. 17 (1967), p. 841-854]. Each rat orally received the test compound and then, at variable times, an intraveinous injection of 1.5 mg of apomorphine hydrochloride in the veins of the penis. The times of injection were 1 hour, 24 hours, 2 days, 3 days or 4 days after the test product administration and the rats were studied during 1 minute after 5,10 and 15 minutes after the injection and the stereotype movements of the jaws spheres were evaluated for their degree of intensity on a scale for 0 to 3 /Boissier et al, Therapie, Vol. 25 (1970), p. 939-949/. The ED50 was determined at the maximum of the effect for the time considered that is to say the dose reducing the symptoms by 50% in the treated animals as compared to control animals and the results are reported in Table I.
# acute toxicity = conditions: mouse, in vivo, Swiss mice, mortality at 72 hours
# Experimental: The acute toxicity of the product of Example 2 was determined on groups of 10 mice of the Swiss strain weighing about 20 g receiving increasing doses orally or intraperitoneally of the test product. The mortality was determined 72 hours after the product administration.
# [4] = system: vomitting provoked by apomorphine; assay: antagonism against vomitting provoked by apomorphine; type: in vivo, dogs; conditions: dog
# Experimental: D. antagonism against vomitting provoked by apomorphine
# This test was effected on 3 dogs on whom the number of vomits provoked by a single subcutaneous injection of 0.1 mg/kg of apomorphine hydrochloride 8 days before this test. Each dog received subcutaneously an injection of an aqueous suspension of 0.3 mg/kg or 0.8 mg/kg of the product of Example 2 and an injection of 0.1 mg/kg of apomorphine hydrochloride 30 minutes, 7 days, 14 days, 21 days, 28 days, 35 days and 42 days thereafter.
# [5] = system: stereotypes provoked by amphetamine; assay: antagonism to stereotypes provoked by amphetamine; type: in vivo, rats; conditions: for % protection: rat
# Experimental: C. antagonism to stereotypes provoked by amphetamine
# This test with the product of Example 2 was effected on groups of 5 rats with the rats individually held in cages and after the rats received intraperitoneally or subcutaneously an aqueous suspension of the product at a dose of 10 mg/kg, each rat received intraperitoneally at different times a single injection of 8 mg/kg of dexamphetamine sulfate. The second injections were made 1 hour or 1,3 or 7 days after the first injection and the results were determined by the procedure of Halliwel et al [Brit. J. Pharmacol., Vol. 23 (1964), p. 330-350].
# [6] = dexamphetamine 1 h after test product
# [7] = dexamphetamine 24 h after test product
# [8] = apomorphine 1 h after test product
# [9] = apomorphine 24 h after test product
# [10] = 48 h, dexamphetamine 2 d after test product
# [11] = 72 h, dexamphetamine 3 d after test product
# [12] = 48 h, apomorphine 2 d after test product
# [13] = 72 h, apomorphine 3 d after test product
# [14] = 96 h, apomorphine 4 d after test product
# [15] = 96 h, dexamphetamine 4 d after test product
# [16] = 168 h, dexamphetamine 7 d after test product
smiles,measurement,setting,value
"c1ccc2c(c1)Sc1ccccc1N2CCCN1CCC(c2c[nH]c3ccccc23)CC1 [Example 1, 4-(3'-indolyl)-1-[γ-(10""-phenothiazinyl)-propyl]-piperidine.HCl]",ED50,[1]; [6],< 10 mg/kg
same,ED50,[1]; [7],< 10 mg/kg
same,Protection against histamine,[2]; after 1 hour,0 (less than 50% protected)
same,Protection against histamine,[2]; after 24 hours,+ (at least 50% protected)
same,ED50,[3]; [8],> 50 mg/kg
same,ED50,[3]; [9],35 mg/kg
"FC(F)(F)c1ccc2c(c1)N(CCCN1CCC(c3c[nH]c4ccccc34)CC1)c1ccccc1S2 [Example 2, 4-(3'-indolyl)-1-[γ-(2""-trifluoromethyl-10""-phenothiazinyl)-propyl]-piperidine hydrochloride]",ED50,[1]; [10],< 10 mg/kg
same,ED50,[1]; [11],50 mg/kg
same,ED50,[1]; [6],< 10 mg/kg
same,ED50,[1]; [7],< 10 mg/kg
same,LD50 at 72 h,"acute toxicity; ip, intraperitoneal",~300 mg/kg
same,LD50 at 72 h,acute toxicity; oral,> 1600 mg/kg
same,Protection against histamine,[2]; after 1 hour,+ (at least 50% protected)
same,Protection against histamine,[2]; after 24 hours,0 (less than 50% protected)
same,"neuroleptic activity (Table III, in words)",[4]; subcutaneous,important prolonged neuroleptic activity
same,% of protection,"[4]; subcutaneous 0.3 mg/kg, after 30 min",24%
same,% of protection,"[4]; subcutaneous 0.3 mg/kg, after 7 d",86%
same,% of protection,"[4]; subcutaneous 0.3 mg/kg, after 14 d",57%
same,% of protection,"[4]; subcutaneous 0.3 mg/kg, after 21 d",29%
same,% of protection,"[4]; subcutaneous 0.3 mg/kg, after 28 d",10%
same,% of protection,"[4]; subcutaneous 0.8 mg/kg, after 30 min",0%
same,% of protection,"[4]; subcutaneous 0.8 mg/kg, after 7 d",100%
same,% of protection,"[4]; subcutaneous 0.8 mg/kg, after 14 d",95%
same,% of protection,"[4]; subcutaneous 0.8 mg/kg, after 21 d",84%
same,% of protection,"[4]; subcutaneous 0.8 mg/kg, after 28 d",79%
same,% of protection,"[4]; subcutaneous 0.8 mg/kg, after 35 d",42%
same,% of protection,"[4]; subcutaneous 0.8 mg/kg, after 42 d",21%
same,ED50,[3]; [12],18 mg/kg
same,ED50,[3]; [13],17 mg/kg
same,ED50,[3]; [14],33 mg/kg
same,ED50,[3]; [8],> 50 mg/kg
same,ED50,[3]; [9],< 10 mg/kg
same,antagonistic effect against the stereotypes provoked by amphetamine (in words),[5]; injected intraperitoneally or subcutaneously,important antagonistic effect of prolonged duration
same,% protection,"[5]; intraperitoneal 10 mg/kg, after 1 hour",39%
same,% protection,"[5]; intraperitoneal 10 mg/kg, after 1 day",77%
same,% protection,"[5]; intraperitoneal 10 mg/kg, after 3 days",68%
same,% protection,"[5]; intraperitoneal 10 mg/kg, after 7 days",61%
same,% protection,"[5]; subcutaneous 10 mg/kg, after 1 hour",17%
same,% protection,"[5]; subcutaneous 10 mg/kg, after 1 day",84%
same,% protection,"[5]; subcutaneous 10 mg/kg, after 3 days",60%
same,% protection,"[5]; subcutaneous 10 mg/kg, after 7 days",14%
"COc1ccc2[nH]cc(C3CCN(CCCN4c5ccccc5Sc5ccc(C(F)(F)F)cc54)CC3)c2c1 [Example 3, 4-(5'-methoxy-3'-indolyl)-1-[γ-(2""-trifluoromethyl-10""-phenothiazinyl)-propyl]-piperidine hydrochloride]",ED50,[1]; [10],< 10 mg/kg
same,ED50,[1]; [11],< 10 mg/kg
same,ED50,[1]; [15],< 10 mg/kg
same,ED50,[1]; [6],< 10 mg/kg
same,ED50,[1]; [7],< 10 mg/kg
same,ED50,[3]; [12],< 10 mg/kg
same,ED50,[3]; [13],12 mg/kg
same,ED50,[3]; [14],20 mg/kg
same,ED50,[3]; [8],> 50 mg/kg
same,ED50,[3]; [9],< 10 mg/kg
"COc1ccc2c(C3CCN(CCCN4c5ccccc5Sc5ccc(C(F)(F)F)cc54)CC3)c(C)[nH]c2c1 [Example 4, 4-(2'-methyl-6'-methoxy-3'-indolyl)-1-[γ-(2""-trifluoromethyl-10""-phenothiazinyl)-propyl]-piperidine hydrochloride]",ED50,[1]; [10],< 10 mg/kg
same,ED50,[1]; [11],9 mg/kg
same,ED50,[1]; [15],9 mg/kg
same,ED50,[1]; [16],50 mg/kg
same,ED50,[1]; [6],10 mg/kg
same,ED50,[1]; [7],< 10 mg/kg
same,ED50,[3]; [12],9 mg/kg
same,ED50,[3]; [13],16 mg/kg
same,ED50,[3]; [14],25 mg/kg
same,ED50,[3]; [8],> 50 mg/kg
same,ED50,[3]; [9],9 mg/kg
"Clc1ccc2c(c1)N(CCCN1CCC(c3c[nH]c4ccccc34)CC1)c1ccccc1S2 [Example 5, 4-(3'-indolyl)-1'-[γ-(2""-chloro-10""-phenothiazinyl)-propyl]-piperidine hydrochloride]",ED50,[1]; [10],< 10 mg/kg
same,ED50,[1]; [11],10 mg/kg
same,ED50,[1]; [15],17 mg/kg
same,ED50,[1]; [6],16 mg/kg
same,ED50,[1]; [7],< 10 mg/kg
same,Protection against histamine,[2]; after 1 hour,+ (at least 50% protected)
same,Protection against histamine,[2]; after 24 hours,+ (at least 50% protected)
same,ED50,[3]; [12],12 mg/kg
same,ED50,[3]; [13],27 mg/kg
same,ED50,[3]; [8],> 50 mg/kg
same,ED50,[3]; [9],< 10 mg/kg
"COc1ccc2c(c1)N(CCCN1CCC(c3c[nH]c4ccccc34)CC1)c1ccccc1S2 [Example 6, 4-(3'-indolyl)-1-[γ-(2""-methoxy-10""-phenothiazinyl)-propyl]-piperidine hydrochloride]",ED50,[1]; [10],10 mg/kg
same,ED50,[1]; [6],< 10 mg/kg
same,ED50,[1]; [7],< 10 mg/kg
same,Protection against histamine,[2]; after 1 hour,0 (less than 50% protected)
same,Protection against histamine,[2]; after 24 hours,+ (at least 50% protected)
same,ED50,[3]; [12],45 mg/kg
same,ED50,[3]; [8],> 50 mg/kg
same,ED50,[3]; [9],< 10 mg/kg
"CC(CN1CCC(c2c[nH]c3ccccc23)CC1)CN1c2ccccc2Sc2ccc(C(F)(F)F)cc21 (stereo not drawn) [Example 7, 4-(3'-indolyl)-1-[β-methyl-γ-(2""-trifluoromethyl-10""-phenothiazinyl)-propyl]-piperidine hydrochloride]",ED50,[1]; [10],< 10 mg/kg
same,ED50,[1]; [11],13 mg/kg
same,ED50,[1]; [15],< 10 mg/kg
same,ED50,[1]; [16],19 mg/kg
same,ED50,[1]; [6],> 20 mg/kg
same,ED50,[1]; [7],< 10 mg/kg
same,Protection against histamine,[2]; after 1 hour,0 (less than 50% protected)
same,Protection against histamine,[2]; after 24 hours,+ (at least 50% protected)
same,ED50,[3]; [12],10 mg/kg
same,ED50,[3]; [13],< 10 mg/kg
same,ED50,[3]; [14],12 mg/kg
same,ED50,[3]; [8],> 20 mg/kg
same,ED50,[3]; [9],10 mg/kg
"COc1ccc2c(c1)N(CC(C)CN1CCC(c3c[nH]c4ccccc34)CC1)c1ccccc1S2 (stereo not drawn) [Example 8, 4-(3'-indolyl)-1-[γ-(2""-methoxy-10""-phenothiazinyl)-β-methylpropyl]-piperidine hydrochloride]",ED50,[1]; [10],< 10 mg/kg
same,ED50,[1]; [11],18 mg/kg
same,ED50,[1]; [6],< 10 mg/kg
same,ED50,[1]; [7],< 10 mg/kg
same,Protection against histamine,[2]; after 1 hour,0 (less than 50% protected)
same,Protection against histamine,[2]; after 24 hours,+ (at least 50% protected)
same,ED50,[3]; [12],12 mg/kg
same,ED50,[3]; [13],30 mg/kg
same,ED50,[3]; [8],> 50 mg/kg
same,ED50,[3]; [9],< 10 mg/kg
